Assays:
human ENPP1 = target: T1, human ENPP1 (Homo sapiens, UniProt P22413); test: ENPP1 assay with ATP substrate (Transcreener AMP2/GMP2 TR-FRET); format: biochemical; details: 1 hour at room temperature
T1 construct: made in house
T1 sequence (P22413 1-925): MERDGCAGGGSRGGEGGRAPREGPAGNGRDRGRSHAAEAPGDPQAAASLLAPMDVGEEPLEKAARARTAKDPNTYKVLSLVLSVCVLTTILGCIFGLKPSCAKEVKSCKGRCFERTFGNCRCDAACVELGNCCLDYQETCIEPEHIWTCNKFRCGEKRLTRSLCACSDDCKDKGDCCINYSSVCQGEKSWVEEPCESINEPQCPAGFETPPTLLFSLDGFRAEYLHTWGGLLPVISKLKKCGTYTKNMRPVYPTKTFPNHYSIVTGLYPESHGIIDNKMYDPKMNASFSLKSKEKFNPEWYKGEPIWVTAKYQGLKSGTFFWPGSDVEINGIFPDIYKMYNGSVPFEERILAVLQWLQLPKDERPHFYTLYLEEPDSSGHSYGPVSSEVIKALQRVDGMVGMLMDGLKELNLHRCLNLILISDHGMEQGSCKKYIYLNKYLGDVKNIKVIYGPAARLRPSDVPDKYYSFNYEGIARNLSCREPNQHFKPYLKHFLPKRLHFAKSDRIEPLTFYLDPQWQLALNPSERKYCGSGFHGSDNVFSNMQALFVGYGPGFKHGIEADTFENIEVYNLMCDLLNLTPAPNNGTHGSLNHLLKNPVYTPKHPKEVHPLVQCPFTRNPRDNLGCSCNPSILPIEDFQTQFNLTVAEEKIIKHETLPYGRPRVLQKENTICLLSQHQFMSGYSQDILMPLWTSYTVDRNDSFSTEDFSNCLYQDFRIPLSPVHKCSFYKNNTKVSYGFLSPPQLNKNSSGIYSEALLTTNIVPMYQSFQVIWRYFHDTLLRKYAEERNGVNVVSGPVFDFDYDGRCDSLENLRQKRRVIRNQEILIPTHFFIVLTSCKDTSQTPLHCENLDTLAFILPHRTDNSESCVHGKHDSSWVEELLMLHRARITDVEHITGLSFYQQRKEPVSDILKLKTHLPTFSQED
Text: Example B1: ENPP1 Assay with ATP Substrate
Ectonucleotide pyrophosphatase/phosphodiesterase 1 (ENPP1) hydrolyzes ATP, breaking it down into 5′-AMP and pyrophosphate. The 5′-AMP formed from the reaction is detected by Transcreener® AMP2/GMP2 TR-FRET Assay (Bellbrook), containing AMP-tracer (HiLyte 647) and anti-AMP Terbium (Tb) donor. 5′-AMP generated in the reaction competes with AMP-tracer for binding with Anti-AMP Tb donor, and decreases TR-FRET signal.
Different concentrations of ENPP1 inhibitors are added to dry assay plate, followed by 2 μl 300 nM ATP. The reaction is initiated with the addition of 2 μl 8.5 μM human ENPP1 (generated by SBP Protein group). The assay reaction mixture contains a buffer of 50 mM Tris, pH 7.5, 1 mM TCEP, 2 mM MgCl2, 0.005% Tween 20, and 1% DMSO. The reaction is stopped after 1 hour at room temperature by adding 2 μL of 2 nM AMP-tracer and 2 μl of 2 nM Anti-AMP Tb donor in the 50 mM Tris, pH 7.5, buffer containing 20 mM EDTA and 0.1% Prionex. After 2 hour additional incubation at room temperature, the generated signal is measured using BMG Lab PHERASTAR instrument. 100% activity control samples (containing enzyme, substrate, buffer: MAX) and no enzyme control samples (containing substrate and buffer: MIN) are utilized to calculate percent inhibition (%) for each compound concentration well (COMPOUND) as follows.
The IC50 values are determined by fitting the inhibition curves with 2-parameter variable slope model in Graphpad Prism software using percent inhibition vs compound concentration data: […]

ENPP3 = target: T2, ENPP3 (Homo sapiens, UniProt O14638); test: ENPP3 Km ATP assay; format: biochemical; details: ATP at Km
T2 sequence (O14638 1-875): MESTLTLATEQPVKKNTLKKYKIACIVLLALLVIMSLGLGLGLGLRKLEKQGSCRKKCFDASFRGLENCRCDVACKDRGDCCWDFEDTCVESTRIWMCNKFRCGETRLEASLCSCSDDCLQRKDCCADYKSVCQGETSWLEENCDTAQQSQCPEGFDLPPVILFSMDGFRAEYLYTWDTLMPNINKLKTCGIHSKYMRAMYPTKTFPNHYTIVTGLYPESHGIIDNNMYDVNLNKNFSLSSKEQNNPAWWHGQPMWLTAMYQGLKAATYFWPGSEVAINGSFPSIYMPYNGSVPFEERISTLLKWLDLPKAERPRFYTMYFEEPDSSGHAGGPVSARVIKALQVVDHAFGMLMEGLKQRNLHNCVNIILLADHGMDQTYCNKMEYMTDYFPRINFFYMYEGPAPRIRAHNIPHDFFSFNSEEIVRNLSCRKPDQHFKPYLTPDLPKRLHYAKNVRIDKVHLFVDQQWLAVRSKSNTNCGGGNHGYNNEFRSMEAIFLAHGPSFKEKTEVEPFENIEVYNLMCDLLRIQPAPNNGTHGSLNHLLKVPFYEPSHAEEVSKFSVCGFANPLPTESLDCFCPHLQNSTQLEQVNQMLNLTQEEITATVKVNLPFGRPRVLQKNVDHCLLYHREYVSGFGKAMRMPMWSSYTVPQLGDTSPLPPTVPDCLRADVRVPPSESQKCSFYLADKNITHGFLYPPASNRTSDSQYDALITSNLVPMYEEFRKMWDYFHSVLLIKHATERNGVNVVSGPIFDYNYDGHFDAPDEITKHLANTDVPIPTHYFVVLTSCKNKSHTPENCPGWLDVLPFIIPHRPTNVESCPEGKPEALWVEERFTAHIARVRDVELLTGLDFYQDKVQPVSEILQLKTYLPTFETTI

Compound | IC50 (human ENPP1) [µM] | IC50 (ENPP3) [µM]
Cn1ncc2c(NCc3ccc(S(N)(=O)=O)cc3)nccc21 [Example 2.66, 4-(((1-Methyl-1H-pyrazolo[4,3-c]pyridin-4-yl)amino)methyl)benzenesulfonamide] | 1 to 20 | 1 to 20
NS(=O)(=O)c1ccc(CNc2nc(-c3ccccn3)nc3scc(-c4ccccn4)c23)cc1 [Example 1.23, 4-(((2,5-Di(pyridin-2-yl)thieno[2,3-d]pyrimidin-4-yl)amino)methyl)benzenesulfonamide] | 0.1 to 1 | 1 to 20
COc1cc(S(N)(=O)=O)ccc1CNc1ncnc2c1cnn2C [Example 2.3, 3-Methoxy-4-(((1-methyl-1H-pyrazolo[3,4-d]pyrimidin-4-yl)amino)methyl)-benzenesulfonamide] | 0.1 to 1 | 1 to 20
Cc1ccc(CCCNC2CCN(c3ncnc4c(C)csc34)CC2)cc1 [Example 3.4, 1-(7-Methylthieno[3,2-d]pyrimidin-4-yl)-N-(3-(p-tolyl)propyl)piperidin-4-amine] | 0.1 to 1 | > 20
COc1cc(CCCNC2CCN(c3ncnc4c(C)csc34)CC2)ccn1 [Example 3.51, N-(3-(2-Methoxypyridin-4-yl)propyl)-1-(7-methylthieno[3,2-d]pyrimidin-4-yl)piperidin-4-amine] | 0.1 to 1 | > 20
Cc1cc(CNc2ncnc3c2cnn3C)ccc1S(N)(=O)=O [Example 2.46, 2-Methyl-4-(((1-methyl-1H-pyrazolo[3,4-d]pyrimidin-4-yl)amino)methyl)-benzenesulfonamide] | 1 to 20 | 1 to 20
CCN(C)c1nc(NCc2ccc(S(N)(=O)=O)cc2)c2cnn(C)c2n1 [Example 2.31, 4-(((6-(Ethyl(methyl)amino)-1-methyl-1H-pyrazolo[3,4-d]pyrimidin-4-yl)amino)methyl)-benzenesulfonamide] | 1 to 20 | 0.1 to 1
CCCCNc1cc(NCc2ccc(S(N)(=O)=O)cc2)c2cnn(C)c2n1 [Example 2.80, 4-(((6-(Butylamino)-1-methyl-1H-pyrazolo[3,4-b]pyridin-4-yl)amino)methyl)-benzenesulfonamide] | 1 to 20 | 1 to 20
Cn1ncc2c(NCc3ccc(S(N)(=O)=O)cc3)nc(NCc3ccccc3)nc21 [Example 2.48, 4-(((6-(Benzylamino)-1-methyl-1H-pyrazolo[3,4-d]pyrimidin-4-yl)amino)methyl)-benzenesulfonamide] | 0.1 to 1 | 0.1 to 1
NS(=O)(=O)c1ccc(CNc2ncnc3scc(Br)c23)cc1 [Example 1.49, 4-((5-Bromothieno[2,3-d]pyrimidin-4-yl)aminomethyl)benzenesulfonamide] | 0.1 to 1 | < 0.1
Cn1cnc2c(NCc3ccc(S(N)(=O)=O)cc3)ncnc21 [Example 2.8, 4-(((9-Methyl-9H-purin-6-yl)amino)methyl)benzenesulfonamide] | > 20 | 1 to 20
Cc1nn(C)c2ncnc(NCc3ccc(S(N)(=O)=O)cc3)c12 [Example 2.45, 4-(((1,3-Dimethyl-1H-pyrazolo[3,4-d]pyrimidin-4-yl)amino)methyl)benzenesulfonamide] | 0.1 to 1 | 0.1 to 1
NS(=O)(=O)c1ccc(CNc2nc(Cl)nc3c2cnn3C2CC2)cc1 [Example 2.84, 4-((6-Chloro-1-cyclopropyl-1H-pyrazolo[3,4-d]pyrimidin-4-yl)aminomethyl)-benzenesulfonamide] | < 0.1 | 1 to 20
NS(=O)(=O)c1ccc(CNc2nc(NC3CC3)nc3scc(-c4ccccc4)c23)cc1 [Example 1.26, 4-(((2-(Cyclopropylamino)-5-phenylthieno[2,3-d]pyrimidin-4-yl)amino)methyl)-benzenesulfonamide] | < 0.1 | < 0.1
Cc1ccccc1CCC(=O)NC1CCN(c2ncnc3c(C)csc23)CC1 [Example 3.14, N-(1-(7-Methylthieno[3,2-d]pyrimidin-4-yl)piperidin-4-yl)-3-(o-tolyl)propanamide] | > 20 | > 20
Cn1ncc2c(NCc3ccc(S(N)(=O)=O)cc3)cc(NCCO)nc21 [Example 2.81, 4-(((6-((2-Hydroxyethyl)amino)-1-methyl-1H-pyrazolo[3,4-b]pyridin-4-yl)amino)methyl)-benzenesulfonamide] | 1 to 20 | 1 to 20
Cn1ncc2c(NCc3ccc(S(N)(=O)=O)cc3)cc(N3CCCC3)nc21 [Example 2.77, 4-(((1-Methyl-6-(pyrrolidin-1-yl)-1H-pyrazolo[3,4-b]pyridin-4-yl)amino)methyl)-benzenesulfonamide] | 1 to 20 | 0.1 to 1
CCOc1nc(NCc2ccc(S(N)(=O)=O)cc2)c2cnn(C)c2n1 [Example 2.93, 4-((6-Ethoxy-1-methyl-1H-pyrazolo[3,4-d]pyrimidin-4-yl)aminomethyl)-benzenesulfonamide] | < 0.1 | 0.1 to 1
C=Cc1nc(NCc2ccc(S(N)(=O)=O)cc2)c2cnn(C)c2n1 [Example 2.39, 4-(((1-Methyl-6-vinyl-1H-pyrazolo[3,4-d]pyrimidin-4-yl)amino)methyl)benzenesulfonamide] | < 0.1 | < 0.1
Cc1cc(CCCNC2CCN(c3ncnc4c(C)csc34)CC2)ccn1 [Example 3.30, N-(3-(2-Methylpyridin-4-yl)propyl)-1-(7-methylthieno[3,2-d]pyrimidin-4-yl)piperidin-4-amine] | 0.1 to 1 | > 20
Cc1csc2c(N3CCC(NCCCc4ccccn4)CC3)ncnc12 [Example 3.3, 1-(7-Methylthieno[3,2-d]pyrimidin-4-yl)-N-(3-(pyridin-2-yl)propyl)piperidin-4-amine] | 0.1 to 1 | > 20
COc1cc(S(N)(=O)=O)ccc1CNc1nc(-c2ccccn2)nc2scc(-c3ccccc3)c12 [Example 1.17, 3-Methoxy-4-(((5-phenyl-2-(pyridin-2-yl)thieno[2,3-d]pyrimidin-4-yl)amino)methyl)-benzenesulfonamide] | < 0.1 | 1 to 20
Cc1ccncc1/C=C/CNC1CCN(c2ncnc3c(Br)csc23)CC1 [Example 3.62, (E)-1-(7-Bromothieno[3,2-d]pyrimidin-4-yl)-N-(3-(4-methylpyridin-3-yl)allyl)piperidin-4-amine] | < 0.1 | –
